Laboratory results: US10545133B2, “Molecular signatures of invasive cancer subpopulations” (The Johns Hopkins University, priority 2013, dated 2020)

Key:
Format in all cases: cell-based, mouse
[1] = test system: MMTV-PyMT tumor organoids; experiment: Mitosis (pH3) and K14 staining of tumor organoids treated with a mitosis inhibitor; settings: aphidicolin 10 mM from day 0, 3D collagen matrix
Description: FIG. 4. Lumenal Tumor Cells Acquire Markers of Basal Differentiation (A) Mouse mammary tumor organoids grown in 3D collagen matrix stained with K8 and K14. (B) Bar graph of percentage of tumor organoids with K8 or K14 intensity equal to or greater than 1+ as a function of time. K14 and K8 intensity was quantified into 0 (no or few), 1 (intermediate), or 2 (bright) K14 signal. Data are presented as mean±SD. For K14: n=719 organoids from 5-8 mice per day; for K8: n=269 organoids from 3 mice per day. (C) Mammary tumor organoids grown in 3D collagen matrix stained with p63 and DAPI. (D) The percentage of organoids with nuclei positive for p63 was counted. Data are presented as mean±SD. n=114 organoids from 2 mice per day. (E) Invasion was quantified by scoring protrusive morphology of cancer cells in contact with the ECM. Data are presented as mean±SD. n=916 organoids from 4-7 mice per day. (F) Tumor organoids treated from day 0 with DMSO vehicle or a mitosis inhibitor (aphidicolin 10 mM) stained with K14, pH3, and DAPI. […] (H) K14 intensity scored in vehicle or aphidicolin. K14 intensity was quantified into 0 (no or few), 1 (intermediate), or 2 (bright) K14 signal. n=110 organoids from 2 mice per condition. […] All p values were determined by two-sided t test. *p<0.05. **p<0.01. ***p<0.001. […]

K14+ cells = experiment: Doxorubicin challenge of mammary carcinoma cells; settings: challenge with doxorubicin
[2] = test system: MMTV-PyMT tumor organoids; experiment: Oxytocin contractility experiment
Description: FIG. 8. Leader Cells Are Molecularly Distinct from Normal Differentiated Myoepithelial Cells and Coexpress Lumenal Epithelial Markers, Related to FIG. 1 (A-C) Leader cells from MMTV-PyMT tumor organoids stained with K14 and K8 (A), K8, p63, and phalloidin (B), or E-cadherin (Ecad) and phalloidin (C). Arrow in (A), a K14+K8+ cell. Arrow in (B), a K8+p63+ cell. 75% of leaders were K14+K8+(n=21/28) and 34% of leaders were K8+p63+(n=22/65). Blue arrows in (C), Ecadherin staining at cell-cell contacts between leader and follower cells. […] Data presented as mean±sd. n=3 normal and tumor organoids. **p<0.01, *p<0.05; p values determined by two-sided t test. […] (G) The reduction in organoid area calculated in (F) provides a proxy for oxytocin-dependent contractility. Organoids were incubated in oxytocin at the specified doses, and the change in area was determined. […] N=23-30 organoids per condition from 3 independent experiments. *p<0.005, […]; p values determined by two-sided t test. […]
Normal mammary epithelial organoids and MMTV-PyMT tumor organoids were embedded in 3D collagen I matrix and cultured in FGF2 organoid media for 4 days. Normal and tumor organoids were then monitored by DIC time-lapse microscopy collecting images every 5 min. […]

C[C@@]1(CO)[C@H](O)CC[C@@]2(C)[C@H]1CC[C@H]1C[C@@H]3C[C@@]12CC[C@]3(O)CO [aphidicolin]
increase in K14+ cells (K14 intensity) [1]: did not prevent an increase in K14+ cells | mitosis (pH3+ nuclei per tumor organoid) [1]: blocked mitosis completely

COc1cccc2c1C(=O)c1c(O)c3c(c(O)c1C2=O)C[C@@](O)(C(=O)CO)C[C@@H]3O[C@H]1C[C@H](N)[C@H](O)[C@H](C)O1 [doxorubicin]
representation of K14+ cells among the intrinsically resistant cells (K14+ cells): strongly overrepresented

CC[C@H](C)[C@@H]1NC(=O)[C@H](Cc2ccc(O)cc2)NC(=O)[C@@H](N)CSSC[C@@H](C(=O)N2CCC[C@H]2C(=O)N[C@@H](CC(C)C)C(=O)NCC(N)=O)NC(=O)[C@H](CC(N)=O)NC(=O)[C@H](CCC(N)=O)NC1=O [oxytocin]
time of maximal contraction postincubation ([2]; normal mammary and MMTV-PyMT tumor organoids, oxytocin at nM concentrations): 25 min | contraction of leader cells in response to oxytocin ([2]; oxytocin 5 and 50 nM, 3D collagen I, day 4): did not contract
